Reference: ChEMBL document CHEMBL1201862, “PubChem BioAssay data set” (2004)
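Five compound concentrations were applied to cells in 96-well plates for 48 hours; endpoints were derived by simple linear interpolation of the resulting dose-response curve. At the GI50, growth is halved.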 Active and inactive are the calls of the source. Cut-off read from the data, not from the text of the source: active = GI50 up to about 1.1 µM and inactive = higher.

Key:
Assay in all cases: NCI anticancer screen, dose series, 48 h
[1] = system: EKVX
[2] = system: MDA-N
[3] = system: SK-MEL-5
[4] = system: SF-295
[5] = system: U-251
[6] = system: HCC 2998
[7] = system: M14
[8] = system: OVCAR-4
[9] = system: HCT-116
[10] = system: NCI-H522
[11] = system: T47D
[12] = system: HT-29
[13] = system: UACC-62
[14] = system: UACC-257
[15] = system: Malme-3M
[16] = system: UO-31
[17] = system: MDA-MB-231
[18] = system: SF-539
[19] = system: OVCAR-3
[20] = system: SR

Measured: GI50

N#CC(C#N)=C1C(=O)NC(N)=C1C#N
inactive: [1] > 100 µM | [2] > 100 µM | [3] > 100 µM | [4] > 100 µM | [5] > 100 µM | [6] > 100 µM | [7] > 100 µM | [8] > 100 µM | [9] > 100 µM | [10] > 100 µM | [11] > 100 µM | [12] > 100 µM | [13] > 100 µM | [14] > 100 µM | [15] > 100 µM | [16] > 100 µM | [17] > 100 µM

COc1ccc2c(c1)/C(=C\c1c(Cl)n(-c3ccccc3)c3ccccc13)C(=O)N2
inactive: [1] 5.86 µM | [2] 1.74 µM | [3] 4.34 µM | [4] 3.91 µM | [5] 4.19 µM | [6] 4.89 µM | [7] 3.2 µM | [18] 2.98 µM | [8] 9.2 µM | [9] 2.99 µM | [11] 5.94 µM | [12] 3.48 µM | [19] 2.25 µM | [13] 5.89 µM | [14] 8.97 µM | [20] 2.59 µM | [15] 2.83 µM | [16] 1.53 µM | [17] 13.4 µM

CCOC(=O)C1(C/C=C/CCl)CCCC1=O (configuration not stated)
inactive: [1] 19.5 µM | [2] 17.9 µM | [3] 15.6 µM | [4] 37.2 µM | [5] 24.5 µM | [7] 18.1 µM | [18] 20.7 µM | [8] 29.6 µM | [9] 17.2 µM | [10] 23.7 µM | [11] 23.1 µM | [12] 24.2 µM | [13] 14.1 µM | [14] 35.2 µM | [15] 22.5 µM | [16] 20 µM | [17] 16.6 µM

COc1cc2nc3c(=C(C#N)C#N)c4ccccc4n3c(=O)c2cc1OC
inactive: [1] > 100 µM | [2] > 100 µM | [3] > 100 µM | [4] > 100 µM | [5] > 100 µM | [6] > 100 µM | [7] > 100 µM | [18] > 100 µM | [8] > 100 µM | [9] > 100 µM | [10] > 100 µM | [11] > 100 µM | [12] > 100 µM | [19] > 100 µM | [13] > 100 µM | [14] > 100 µM | [20] > 100 µM | [16] > 100 µM | [17] > 100 µM

COc1cc(CNc2nc3cc(C(F)(F)F)ccc3nc2C(=O)O)cc(OC)c1OC
inactive: [1] 20.1 µM | [2] 21.5 µM | [4] 20.5 µM | [5] 15.7 µM | [6] 41.4 µM | [7] 17.5 µM | [18] 15.2 µM | [9] 15.6 µM | [10] 29.2 µM | [11] 21.1 µM | [19] 24.3 µM | [13] 15.5 µM | [14] 21.5 µM | [20] 33.3 µM | [15] 38.6 µM | [16] 18.6 µM

Cn1c(=O)[nH]n(-c2ccc3ccccc3c2)c1=O
inactive: [1] > 100 µM | [2] > 100 µM | [3] > 100 µM | [4] > 100 µM | [5] > 100 µM | [6] > 100 µM | [7] > 100 µM | [18] > 100 µM | [8] > 100 µM | [9] > 100 µM | [10] > 100 µM | [11] > 100 µM | [12] > 100 µM | [19] > 100 µM | [13] > 100 µM | [14] > 100 µM | [15] > 100 µM | [16] > 100 µM | [17] > 100 µM

CC(C)(C)C(=O)C(CC(=O)c1ccccc1)C(=O)C(C)(C)C
inactive: [1] > 100 µM | [2] > 100 µM | [3] > 100 µM | [4] > 100 µM | [5] > 100 µM | [6] > 100 µM | [7] > 100 µM | [18] > 100 µM | [8] > 100 µM | [9] > 100 µM | [10] > 100 µM | [11] > 100 µM | [12] > 100 µM | [19] > 100 µM | [14] > 100 µM | [15] > 100 µM | [16] > 100 µM | [17] > 100 µM

C=C1CC/C=C(/C(=O)O)CC[C@H]2[C@@H]1CC2(C)C
inactive: [1] > 100 µM | [2] > 100 µM | [3] > 100 µM | [4] > 100 µM | [5] > 100 µM | [6] > 100 µM | [7] > 100 µM | [18] > 100 µM | [8] > 100 µM | [9] > 100 µM | [10] > 100 µM | [11] > 100 µM | [12] > 100 µM | [19] > 100 µM | [13] > 100 µM | [14] > 100 µM | [15] > 100 µM | [16] > 100 µM | [17] > 100 µM

COc1cc2nc(-c3ccccc3)cc(O)c2c(OC)c1OC
inactive: [1] > 100 µM | [2] > 100 µM | [3] > 100 µM | [4] > 100 µM | [5] > 100 µM | [6] > 100 µM | [7] > 100 µM | [8] > 100 µM | [9] > 100 µM | [10] > 100 µM | [11] 34.1 µM | [12] > 100 µM | [19] > 100 µM | [13] > 100 µM | [14] > 100 µM | [20] > 100 µM | [15] > 100 µM | [16] 98.4 µM | [17] 61 µM

CC(=O)Nc1cc(C(=O)Nc2cc(C(=O)Nc3cc(C(=O)Nc4cc(C(=O)Nc5cc(C(=O)NCCC(=O)NCCCN(C)C)n(C)c5)n(C)c4)n(C)c3)n(C)c2)n(C)c1
inactive: [1] > 100 µM | [2] 34.9 µM | [3] > 100 µM | [4] > 100 µM | [5] 67.9 µM | [6] 50.4 µM | [7] > 100 µM | [18] 44.5 µM | [8] > 100 µM | [9] 37.3 µM | [10] 17.9 µM | [11] 31.5 µM | [12] > 100 µM | [19] > 100 µM | [14] 76.2 µM | [15] 27.5 µM | [16] > 100 µM | [17] > 100 µM

Oc1ccc2c(c1)CCc1c-2n(CCN2CCOCC2)c2ccc(O)cc12
inactive: [1] 38.8 µM | [2] 45.3 µM | [3] 15.7 µM | [4] 47.2 µM | [5] 35.9 µM | [7] 39 µM | [18] 27.9 µM | [9] 41.3 µM | [11] 31.1 µM | [19] 48.6 µM | [13] 20.6 µM | [14] 37.2 µM | [20] > 100 µM | [15] 25.3 µM | [16] 10.4 µM | [17] 49.7 µM
